Reference: ChEMBL document CHEMBL1145254, “5-Lipoxygenase inhibitors: convenient synthesis of 4-[3-(4-heterocyclylphenylthio)phenyl]-3,4,5,6-tetrahydro-2H-pyran-4-carboxamide analogues” (Bioorg Med Chem Lett, 2005)

How the values were obtained:
[1] = biological target: T1, Polyunsaturated fatty acid 5-lipoxygenase (Mus musculus) (UniProt P48999); assay: Inhibition of 5-lipoxygenase-mediated platelet activating factor induced thrombosis in male mice; format: functional
T1 sequence (whole entry): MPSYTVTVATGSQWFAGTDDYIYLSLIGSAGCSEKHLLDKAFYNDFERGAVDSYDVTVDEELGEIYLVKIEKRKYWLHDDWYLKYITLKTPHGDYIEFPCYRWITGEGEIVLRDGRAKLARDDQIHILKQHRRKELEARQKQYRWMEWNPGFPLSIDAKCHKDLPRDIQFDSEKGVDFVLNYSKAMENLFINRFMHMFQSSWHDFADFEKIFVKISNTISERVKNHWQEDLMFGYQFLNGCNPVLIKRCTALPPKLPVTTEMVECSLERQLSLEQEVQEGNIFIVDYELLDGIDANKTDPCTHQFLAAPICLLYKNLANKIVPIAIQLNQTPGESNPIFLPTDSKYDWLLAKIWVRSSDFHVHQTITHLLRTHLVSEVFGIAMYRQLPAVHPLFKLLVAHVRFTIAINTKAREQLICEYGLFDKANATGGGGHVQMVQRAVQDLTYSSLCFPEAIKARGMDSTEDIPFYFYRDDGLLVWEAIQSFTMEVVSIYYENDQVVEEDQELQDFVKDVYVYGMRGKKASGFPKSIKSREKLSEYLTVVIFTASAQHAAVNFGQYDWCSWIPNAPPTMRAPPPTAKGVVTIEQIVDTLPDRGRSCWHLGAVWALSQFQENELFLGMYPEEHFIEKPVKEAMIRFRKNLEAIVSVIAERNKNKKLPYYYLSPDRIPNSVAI

[2] = biological target: T2, Polyunsaturated fatty acid 5-lipoxygenase (Homo sapiens, UniProt P09917); assay: (§1) Inhibition of 5-lipoxygenase mediated LTB4 synthesis in A-23187 simulated human whole blood; format: functional, tissue-based
T2 sequence (P09917 whole entry): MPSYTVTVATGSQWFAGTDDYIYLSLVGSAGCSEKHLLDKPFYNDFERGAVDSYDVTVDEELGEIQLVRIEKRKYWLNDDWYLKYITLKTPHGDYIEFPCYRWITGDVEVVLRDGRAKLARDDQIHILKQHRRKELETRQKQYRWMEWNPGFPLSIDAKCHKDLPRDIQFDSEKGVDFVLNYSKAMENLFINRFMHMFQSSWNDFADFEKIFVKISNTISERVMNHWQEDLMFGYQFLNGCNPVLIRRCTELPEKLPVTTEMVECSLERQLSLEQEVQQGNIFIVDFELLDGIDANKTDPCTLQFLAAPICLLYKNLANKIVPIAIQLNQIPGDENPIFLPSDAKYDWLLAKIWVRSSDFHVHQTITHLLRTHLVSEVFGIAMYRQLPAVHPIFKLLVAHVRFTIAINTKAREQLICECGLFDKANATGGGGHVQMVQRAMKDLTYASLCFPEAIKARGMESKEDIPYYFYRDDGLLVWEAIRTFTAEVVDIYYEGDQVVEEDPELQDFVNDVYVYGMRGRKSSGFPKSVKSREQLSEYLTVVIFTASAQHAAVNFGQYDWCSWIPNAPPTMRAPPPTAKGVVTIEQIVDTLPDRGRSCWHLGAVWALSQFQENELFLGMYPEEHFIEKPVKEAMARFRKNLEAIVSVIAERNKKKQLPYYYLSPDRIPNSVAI

[3] = biological target: T3, Polyunsaturated fatty acid 5-lipoxygenase (Homo sapiens) (UniProt P09917); details: Blood, 1 uM
T3 sequence (whole entry): T2 sequence (P09917 whole entry)

[4] = biological target: T3, Polyunsaturated fatty acid 5-lipoxygenase (Homo sapiens); assay: as §1; format: functional, tissue-based; details: concentration not given here
[5] = biological target: T3, Polyunsaturated fatty acid 5-lipoxygenase (Homo sapiens); assay: Inhibition of 5-lipoxygenase mediated LTB4 synthesis in A-23187 simulated human whole blood at 1 uM concentration; format: functional, tissue-based

Compound | ED50 [1] [mg/kg] | IC50 [2] [nM] | inhibition [3] [%] | inhibition [4] [%] | inhibition [5] [%]
Cc1nccn1-c1ccc(Sc2cccc(C3(C(N)=O)CCOCC3)c2)cc1 | 3.7 | 230 | – | – | –
Cc1nccn1-c1ccc(Sc2cccc(C3(C(N)=O)CC4CCC(C3)O4)c2)cc1 (stereo unspecified) | – | > 1000 | -7 | – | –
Cc1cc(C)n(-c2ccc(Sc3cccc(C4(C(N)=O)CCOCC4)c3)cc2)n1 | – | > 1000 | – | -1 | –
CO/N=C/C1(c2cccc(Sc3ccc(-n4ccnc4C)cc3)c2)CCOCC1 | 2 | 150 | – | – | –
Cc1nccn1Cc1ccc(Sc2cccc(C3(C(N)=O)CCOCC3)c2)cc1 | > 20 | 140 | – | – | –
Cc1nccn1-c1ccc(Sc2cccc([C@]3(C(N)=O)CC4CC[C@H](C3)O4)c2)cc1 | 7 | 830 | – | – | –
NC(=O)C1(c2cccc(Sc3ccc(-n4cnnc4)cc3)c2)CCOCC1 | – | > 1000 | – | – | 1
NC(=O)C1(c2cccc(Sc3ccc(Cn4cccc4)cc3)c2)CCOCC1 | 3 | 270 | – | – | –
